Data published in patent publication US20210324281A1, “FUEL DERIVED FROM RENEWABLE RESOURCES” (priority 2018, published 2021).
Each block holds one compound with its values, some of them ahead of it.

Assays:
Escherichia coli = assay: Modified broth dilution in biphasic biofuel (Plantanol)/water system, turbidity at 600 nm; assay type: cell-based; conditions: for bacterial growth (turbidity of the aqueous phase) / effect on bacterial growth compared with Staphylococcus aureus: FIG. 19; for effect on bacterial growth compared with Staphylococcus aureus: in Plantanol with solketal; for microbial growth (turbidity of the aqueous phase): FIG. 21
Source text: (§1) The growth of microbes in the fuel is one of the main problems of biofuels, as set out above. The aim of the experiments was to investigate the bacterial growth in the biphasic biofuel/water system to see how the addition of an antimicrobial additive to the biofuel has an impact on the microbial growth in the aqueous bacteria solution. For this purpose, the so-called “broth dilution” method was modified and applied to the biphasic (biofuel+additive)/(water+bacteria) system.
(§2) This method represents a standard test for the investigation of bactericidal substances (e.g. antibiotics). At first, bacteria are incorporated in water that contains a nutrient medium (e.g. blood or yeast extracts). The potential antimicrobial agents are then added to the bacteria solution and the mixture is incubated over night at a certain temperature.
(§3) The concentration of bacteria can be measured by means of photometric spectroscopy as the presence of bacteria in a solution lead to turbidity. The higher the turbidity, the more bacteria are present in the solution. […] In some cases, the turbidity even decreases (=bacteria die).
(§4) The above-mentioned method was modified and applied to the biofuel/water system. For this purpose, there was one type of gram-negative (Escherichia coli) and gram-positive bacteria (Staphylococcus aureus) incorporated in each aqueous medium. The so-called “LB-medium” (lysogeny broth) was used as the nutrient medium. The biofuel (with and without additive) was then added to the bacteria solution leading to a phase separation of the biofuel (top) and aqueous medium (bottom).
(§5) The samples were incubated in a so-called incubator shaker, to ensure a good mixing of the two phases. Thereafter, the samples were taken out of the incubator and it was waited until complete phase separation occurred (˜30 minutes). Lastly, the aqueous phase was transferred and measured photometrically at a wavelength of A=600 nm.
(§6) Thus, the turbidity of the aqueous phase solely arises from the bacteria's presence in the water. Depending on the magnitude of the turbidity, it can be concluded whether and how the addition of a certain compound to the biofuel affects the bacterial growth in the aqueous medium.
(§7) For this purpose, different concentrations of antimicrobial substances were added to the biofuel and the effect of these substances on the turbidity of the samples was investigated. On the one hand, hydrophobic, biofuel-soluble bactericides were used (Eugenol, Carvacrol) and on the other hand hydrophilic, biofuel-insoluble substances (caffeic acid, gallic acid, ferulic acid) were used. The glycerol derivative solketal was used to make the hydrophilic substances soluble in the biofuel.
(§8) The chosen concentrations for Grotamar82 and Liqui Moly were the ones recommended by the manufacturer. For both products, there is a recommended concentration for prevention of diesel bug as well as a recommended “shock dosage” in case of an already existing microbial contamination. 1000 ppm of Grotamar82 as well 5000 ppm of the product by Liqui Moly are recommended as a “shock dosage” while 250 ppm and 1000 ppm are recommended to achieve an effective protection against diesel bug.
(§9) Additionally, formaldehyde was added to the Plantanol as the kinetics of the hydrolysis of MBO (cf. the above scheme) in Grotamar82 were not known. Grotamar82 contains about 20% of MBO, according to the manufacturer. Thus, a complete hydrolysis of the MBO in 250 ppm and 1000 ppm Grotamar82 would result in the production of 50 ppm and 200 ppm of formaldehyde respectively.

Staphylococcus aureus = assay: as above; assay type: cell-based; conditions: for amount needed relative to ferulic acid to achieve the same effect: 10 wt.-% versus 0.25 wt.-% ferulic acid in Plantanol; for absorbance of the aqueous phase after incubation: medium pre-incubation 0.12, FIG. 20
Source text: as §1, §2, §3, §4, §5, §6, §7, §8, §9

[1] = RapidOxy oxidative stability measurement (DIN EN 16091, 140° C., 700 kPa oxygen); assay type: physicochemical; conditions: for oxidative stability standard according to EN 14214: 500 ppm in Plantanol with 1 wt.-% solketal, FIG. 15; for oxidative stability of the single, pure component: standard: induction time above 33.3 min, FIG. 8
Procedure: In this method, the pressure of a closed, with oxygen filled and afterwards heated sample chamber is measured against time. […] Therefore, the samples are heated up to 140° C. with an oxygen pressure of 700 kPa. […] The incubation time is the period between the start of the experiment and until the pressure dropped by 10% compared to the maximum pressure in the sample chamber. In FIG. 8 etc., this limit is indicated by a dashed line.
For this purpose, the samples were heated up to 140° C. at 700 kPa in an oxygen atmosphere. Thereafter the device measured the pressure with respect to the time. The measurement automatically stopped once a decrease of the pressure of 10% occurred. The time needed for this decrease by 10% is called “induction time” and represents a characteristic quantity for the oxidative stability of a fuel. The quantity “ppm” (parts per million) in the present experimental examples refers to a molar ratio (n/n), if not stated otherwise.

[2] = Solubilisation of hydrophilic antioxidants in biofuel by glycerol derivatives; assay type: physicochemical
Procedure: As a proof of concept, analogous experiments were carried out with the biofuel “Plantanol” from industry. […] The samples were prepared by dissolving the respective antioxidants in solketal.

[3] = 0.1-0.25 wt.-% in Plantanol, solubilised with solketal, FIG. 18
[4] = 330 ppm in 63/27/10 biodiesel (FAME)/rapeseed oil/solketal, FIG. 14
[5] = 333 ppm in 63/27/10 FAME/rapeseed oil/solketal, FIG. 16

SMILES: Cc1ccc(C(C)C)cc1O [Carvacrol, reference compound]
- bacterial growth (turbidity of the aqueous phase) (Escherichia coli; 10 wt.-% in Plantanol): distinctly reduced it
- bacterial growth (turbidity of the aqueous phase) (Staphylococcus aureus; 2 wt.-% in Plantanol, FIG. 18): no effect on the bacterial growth
- bacterial growth (turbidity of the aqueous phase) (Staphylococcus aureus; 10 wt.-% in Plantanol, FIG. 18): completely inhibited the growth
- amount needed relative to ferulic acid to achieve the same effect (Staphylococcus aureus): 40 times

SMILES: C=CCc1ccc(O)c(OC)c1 [Eugenol, reference compound]
- bacterial growth (turbidity of the aqueous phase) (Escherichia coli; 10 wt.-% in Plantanol): distinctly reduced it
- bacterial growth (turbidity of the aqueous phase) (Staphylococcus aureus; 2 wt.-% in Plantanol, FIG. 18): no effect on the bacterial growth
- bacterial growth (turbidity of the aqueous phase) (Staphylococcus aureus; 10 wt.-% in Plantanol, FIG. 18): completely inhibited the growth
- amount needed relative to ferulic acid to achieve the same effect (Staphylococcus aureus): 40 times

- oxidative stability standard according to EN 14214 [1]: not reached
SMILES: CC(C)(C)c1cc(O)ccc1O [TBHQ, 2-tert-butyl hydroquinone, reference compound]

- oxidative stability of the single, pure component [1]: insensitive toward oxidation
SMILES: CCCC(=O)OCC(COC(=O)CCC)OC(=O)CCC [Tributyrin, glycerol tributyrate]

- amount of solketal found preferable to solubilize the additive ([2]; 0.1 wt % of additive in Plantanol): up to 10 wt %
SMILES: O=C(O)/C=C/c1ccc(O)c(O)c1 [caffeic acid]
- effect on bacterial growth compared with Staphylococcus aureus (Escherichia coli): smaller effect on the E.-coli bacteria than they had on the Staphylococcus aureus
- bacterial growth (turbidity of the aqueous phase) (Staphylococcus aureus; [3]): distinctly reduced
- oxidative stability of the biofuel (EN 14214) [1, 4]: enough to make the biofuel fulfil the standard

SMILES: COc1cc(/C=C/C(=O)O)ccc1O [ferulic acid]
- microbial growth (turbidity of the aqueous phase) (Escherichia coli; 0.1 wt % in solketal, in Plantanol): significantly decreased microbial growth
- microbial growth (turbidity of the aqueous phase) (Escherichia coli; 0.25 wt % in Plantanol): No growth of bacteria was observable
- bacterial growth (turbidity of the aqueous phase) (Escherichia coli; 0.25 wt.-% in Plantanol): distinctly reduced it
- microbial growth (turbidity of the aqueous phase) (Escherichia coli; 0.50 wt % in Plantanol): No growth of bacteria was observable
- bacterial growth (turbidity of the aqueous phase) (Staphylococcus aureus; 0.1 wt % dissolved in solketal, in Plantanol, FIG. 20): drastically decreases
- absorbance of the aqueous phase after incubation (Staphylococcus aureus; 0.25 wt % in solketal/Plantanol): below 0.12
- bacterial growth (turbidity of the aqueous phase) (Staphylococcus aureus; 0.25 wt.-% in Plantanol, FIG. 18): complete inhibition
- absorbance of the aqueous phase after incubation (Staphylococcus aureus; 0.5 wt % in solketal/Plantanol): below 0.12

SMILES: O=C(O)c1cc(O)c(O)c(O)c1 [gallic acid]
- effect on bacterial growth compared with Staphylococcus aureus (Escherichia coli): smaller effect on the E.-coli bacteria than they had on the Staphylococcus aureus
- bacterial growth (turbidity of the aqueous phase) (Staphylococcus aureus; [3]): distinctly reduced
- oxidative stability of the biofuel (EN 14214) [1, 4]: enough to make the biofuel fulfil the standard
- oxidative stability of the biofuel (EN 14214) [1, 5]: stabilization above the minimum of EN 14214
- induction time versus concentration, ranking ([1]; solketal system, higher concentrations, FIG. 11): most effective
- amount of solketal sufficient to solubilize the additive ([2]; 500 ppm of additive in Plantanol): < 0.5 wt %

- oxidative stability of the biofuel ([1]; 0.2 wt.-% in solketal system (60 wt.-% FAME, 30 wt.-% rapeseed oil, 10 wt.-% solketal), FIG. 9): distinctly increased
- oxidative stability of the biofuel ([1]; 160 ppm in solketal system (60/30/10), FIG. 9): not enough to fulfill the standard
- oxidative stability standard according to EN 14214 [1]: not reached
SMILES: Oc1ccc(O)cc1 [hydroquinone, reference compound]
- oxidative stability of the biofuel (EN 14214) [1, 4]: enough to make the biofuel fulfil the standard

SMILES: OCCc1ccc(O)c(O)c1 [hydroxytyrosol]
- oxidative stability of the biofuel (EN 14214) [1, 4]: enough to make the biofuel fulfil the standard
- oxidative stability of the biofuel (EN 14214) [1, 5]: stabilization above the minimum of EN 14214

SMILES: CCCOC(=O)c1cc(O)c(O)c(O)c1 [propyl gallate]
- oxidative stability of the biofuel ([1]; tributyrin system (60 wt.-% FAME, 30 wt.-% rapeseed oil, 10 wt.-% tributyrin), FIG. 12): the higher the concentration of the antioxidant, the better the stability toward oxidation is

SMILES: O=c1c(O)c(-c2ccc(O)c(O)c2)oc2cc(O)cc(O)c12 [quercetin]
- oxidative stability of the biofuel (EN 14214) [1, 4]: enough to make the biofuel fulfil the standard

- oxidative stability of the single, pure component [1]: oxidised nearly as fast as 2-methylfuran
SMILES: CC1(C)OCC(CO)O1 (stereo not shown) [solketal, isopropylideneglycerol]

- effect of addition on oxidative stability ([1]; 167 ppm added to the system containing 333 ppm DHB, FIG. 16): no effect on the overall stability
SMILES: O=C1O[C@H]([C@@H](O)CO)C(O)=C1O [vitamin C, ascorbic acid]
- effect of addition on oxidative stability ([1]; 167 ppm added to the system containing 333 ppm GA, FIG. 16): distinct increase of the oxidative stability
- effect of addition on oxidative stability ([1]; 167 ppm added to the system containing 333 ppm HT, FIG. 16): distinct increase of the oxidative stability
